Results on 46 molecules are retold here after ChEMBL document CHEMBL5390216, “Development of small molecule inhibitors of natural killer group 2D receptor (NKG2D)” (Bioorg Med Chem Lett, 2023).

The target of one assay is T1, NKGD2-MICA (Homo sapiens, UniProt P26718).
T1 sequence (P26718 whole entry): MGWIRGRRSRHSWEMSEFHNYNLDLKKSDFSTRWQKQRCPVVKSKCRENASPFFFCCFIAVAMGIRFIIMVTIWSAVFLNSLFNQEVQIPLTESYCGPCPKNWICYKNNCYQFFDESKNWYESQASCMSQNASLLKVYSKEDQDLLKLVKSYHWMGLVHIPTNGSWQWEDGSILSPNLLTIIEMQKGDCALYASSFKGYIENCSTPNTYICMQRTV
T1 sequence (Q29983 whole entry): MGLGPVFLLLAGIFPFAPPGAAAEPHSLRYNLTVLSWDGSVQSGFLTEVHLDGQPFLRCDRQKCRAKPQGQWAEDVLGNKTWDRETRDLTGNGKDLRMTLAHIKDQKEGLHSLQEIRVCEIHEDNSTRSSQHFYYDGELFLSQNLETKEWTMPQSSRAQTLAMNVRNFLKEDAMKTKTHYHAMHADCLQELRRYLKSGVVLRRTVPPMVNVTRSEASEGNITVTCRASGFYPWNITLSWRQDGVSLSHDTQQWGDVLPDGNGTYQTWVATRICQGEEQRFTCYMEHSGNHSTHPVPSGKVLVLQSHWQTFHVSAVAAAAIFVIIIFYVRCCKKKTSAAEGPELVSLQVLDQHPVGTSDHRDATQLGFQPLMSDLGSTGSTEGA
Nature of the assay: Inhibition of NKG2D (unknown origin)/MICA (unknown origin) protein-protein interaction by cell-based TR-FRET assay.

In the next assay the target is T2, NKGD2-ULBP6 (Homo sapiens, UniProt P26718).
T2 sequence (P26718 whole entry): T1 sequence (P26718 whole entry)
T2 sequence (Q5VY80 whole entry): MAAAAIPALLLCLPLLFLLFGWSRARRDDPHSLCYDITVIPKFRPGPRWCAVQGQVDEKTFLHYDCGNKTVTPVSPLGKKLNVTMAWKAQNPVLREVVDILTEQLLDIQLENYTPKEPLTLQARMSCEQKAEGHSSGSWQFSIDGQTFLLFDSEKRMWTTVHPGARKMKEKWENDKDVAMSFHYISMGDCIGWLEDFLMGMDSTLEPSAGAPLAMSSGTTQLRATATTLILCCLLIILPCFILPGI
Nature of the assay: Inhibition of NKG2D (unknown origin)/ULBP6 (unknown origin) protein-protein interaction by cell-based TR-FRET assay.

Molecules are shown by their SMILES. Some results are limits rather than exact numbers.

As to `O=C(NC(C(=O)N1CCC[C@@H]1CO)c1cccc(C(F)(F)F)c1)c1ccccc1-c1ccc(C(F)(F)F)cc1` (stereo partly specified), the IC50 was 4 µM against NKGD2-MICA and 8.7 µM at NKGD2-ULBP6.

On to `CN(C)C(=O)C(NC(=O)c1ccc(-c2ccc(C(F)(F)F)cc2)cc1)c1cccc(C(F)(F)F)c1` (stereo unspecified), for which the IC50 on NKGD2-MICA and against NKGD2-ULBP6 was > 20 µM throughout.

`CN(C)C(=O)C(C)(NC(=O)c1ccccc1-c1ccc(C(F)(F)F)cc1)c1cccc(C(F)(F)F)c1` (stereo unspecified): the IC50 at NKGD2-MICA and on NKGD2-ULBP6 was > 20 µM throughout.

For the molecule `CN(C)C(=O)C(NC(=O)c1cccc(-c2ccc(C(F)(F)F)cc2)c1)c1cccc(C(F)(F)F)c1` (stereo unspecified), the IC50 on NKGD2-MICA and against NKGD2-ULBP6 was > 20 µM each time.

In the case of `CN(C)C(=O)[C@@H](NC(=O)c1cnccc1-c1ccc(C(F)(F)F)cc1)c1ccc(F)c(C(F)(F)F)c1`, the IC50 on NKGD2-MICA was determined as 0.2 µM; against NKGD2-ULBP6, 0.4 µM.

Consider `CN(C)C(=O)C(NC(=O)c1ccccc1)c1cccc(C(F)(F)F)c1` (stereo unspecified), for which the IC50 against NKGD2-MICA and at NKGD2-ULBP6 was > 20 µM throughout.

As to `CN(C)C(=O)[C@@H](NC(=O)c1cnccc1-c1ccc(C(F)(F)F)cc1)c1ccc(Cl)c(C(F)(F)F)c1`, the IC50 came out at 0.1 µM against NKGD2-MICA and 0.3 µM on NKGD2-ULBP6.

On to `CN(C)C(=O)[C@@H](NC(=O)c1cnccc1-c1ccc(C(F)(F)F)cc1)c1cc(Cl)c(Cl)c(C(F)(F)F)c1`, for which the IC50 on NKGD2-MICA is 0.1 µM; against NKGD2-ULBP6, 0.2 µM.

For the molecule `CN(C)C(=O)[C@@H](NC(=O)c1ccccc1-c1ccc(C(F)(F)F)cc1)c1ccc(Cl)c(C(F)(F)F)c1`, the IC50 against NKGD2-MICA turned out to be 0.5 µM.

Turning to `Cc1cc([C@H](NC(=O)c2cnccc2-c2ccc(C(F)(F)F)cc2)C(=O)N(C)C)cc(C(F)(F)F)c1`, the IC50 against NKGD2-MICA is 0.1 µM; at NKGD2-ULBP6 it was 0.4 µM.

Turning to `O=C(N[C@H](C(=O)N1C[C@@H]2[C@H](CO)[C@@H]2C1)c1cccc(C(F)(F)F)c1)c1ccccc1-c1ccc(C(F)(F)F)cc1`, the IC50 against NKGD2-MICA was determined as 1.6 µM; on NKGD2-ULBP6, 3.1 µM.

On to `CN(C)C(=O)C(NS(=O)(=O)c1ccccc1-c1ccc(C(F)(F)F)cc1)c1cccc(C(F)(F)F)c1` (stereo unspecified), for which the half-inhibitory concentration (IC50) against NKGD2-MICA and against NKGD2-ULBP6 was > 20 µM each time.

For `O=C(NCc1cccc(C(F)(F)F)c1)c1ccccc1-c1ccc(C(F)(F)F)cc1`, the IC50 on NKGD2-MICA and against NKGD2-ULBP6 was > 20 µM throughout.

`CN(C)C(=O)[C@@H](NC(=O)c1cc(-c2nnnn2C)ccc1-c1ccc(C(F)(F)F)cc1)c1cccc(C(F)(F)F)c1`: the values for the IC50 on NKGD2-MICA and on NKGD2-ULBP6 were 0.9 µM and 2.4 µM, respectively.

As for `CN(C)C(=O)[C@@H](NC(=O)c1cnccc1-c1ccc(C(F)(F)F)cc1)c1ccc(Cl)c(Cl)c1`, the IC50 is 0.2 µM at NKGD2-MICA and 0.4 µM on NKGD2-ULBP6.

Turning to `CN(C)C(=O)[C@@H](NC(=O)c1cc(-c2nnn[nH]2)ccc1-c1ccc(C(F)(F)F)cc1)c1cccc(C(F)(F)F)c1`, the IC50 at NKGD2-MICA turned out to be 0.5 µM; at NKGD2-ULBP6, 1.5 µM.

As to `CN(C)C(=O)[C@@H](NC(=O)c1ccncc1-c1ccc(C(F)(F)F)cc1)c1cccc(C(F)(F)F)c1`, the IC50 on NKGD2-MICA was 1.6 µM; at NKGD2-ULBP6, 4.8 µM.

Regarding `CN(C)C(=O)CNC(=O)c1ccccc1-c1ccc(C(F)(F)F)cc1`, the IC50 against NKGD2-MICA and at NKGD2-ULBP6 was > 20 µM in each case.

Consider `Cc1ccc([C@H](NC(=O)c2cnccc2-c2ccc(C(F)(F)F)cc2)C(=O)N(C)C)cc1C(F)(F)F`, for which the values for the half-inhibitory concentration (IC50) against NKGD2-MICA and against NKGD2-ULBP6 were 0.3 µM and 0.8 µM, respectively.

With `CN(C)C(=O)[C@@H](NC(=O)c1ncccc1-c1ccc(C(F)(F)F)cc1)c1cccc(C(F)(F)F)c1`, the half-maximal inhibitory concentration (IC50) against NKGD2-MICA is 1 µM; against NKGD2-ULBP6, 3.8 µM.

As for `O=C(N[C@H](C(=O)N1C[C@@H]2[C@@H](CO)[C@@H]2C1)c1cccc(C(F)(F)F)c1)c1ccccc1-c1ccc(C(F)(F)F)cc1`, the values for the IC50 at NKGD2-MICA and at NKGD2-ULBP6 were 1.1 µM and 3.1 µM, respectively.

In the case of `CN(C)C(=O)[C@@H](NC(=O)c1ccccc1-c1ccc(C(F)(F)F)cc1)c1cccc(C(F)(F)F)c1`, the results for the IC50 against NKGD2-MICA and at NKGD2-ULBP6 were 1.2 µM and 2.7 µM, respectively.

Regarding `CN(C)C(=O)[C@@H](NC(=O)c1cnccc1-c1ccc(C(F)(F)F)cc1)c1cc(F)cc(C(F)(F)F)c1`, the IC50 at NKGD2-MICA stood at 0.2 µM; on NKGD2-ULBP6, 0.7 µM.

On to `CN(C)C(=O)[C@@H](NC(=O)c1ccccc1-c1ccc(C(F)(F)F)cc1)c1cccc(C2CC2)c1`, for which the IC50 against NKGD2-MICA was 1.8 µM; against NKGD2-ULBP6, 4.2 µM.

As to `CN(C)C(=O)[C@@H](NC(=O)c1cnccc1-c1ccc(C(F)(F)F)cc1)c1cc(C(F)(F)F)cc(C(F)(F)F)c1`, the IC50 worked out at 0.2 µM at NKGD2-MICA and 0.5 µM against NKGD2-ULBP6.

As for `CN(C)C(=O)[C@@H](NC(=O)c1cc(-c2ccnn2C)ccc1-c1ccc(C(F)(F)F)cc1)c1cccc(C(F)(F)F)c1`, the IC50 stood at 0.3 µM against NKGD2-MICA and 0.7 µM against NKGD2-ULBP6.

As for `CN(C)C(=O)C(NC(=O)c1ccccc1-c1ccccc1)c1cccc(C(F)(F)F)c1` (stereo unspecified), the IC50 on NKGD2-MICA and against NKGD2-ULBP6 was > 20 µM throughout.

Turning to `CN(C)C(=O)[C@@H](NC(=O)c1nnccc1-c1ccc(C(F)(F)F)cc1)c1cccc(C(F)(F)F)c1`, the values for the IC50 at NKGD2-MICA and at NKGD2-ULBP6 were 0.4 µM and 1.5 µM, respectively.

Take `Cc1n[nH]c(C)c1-c1ccc(-c2ccc(C(F)(F)F)cc2)c(C(=O)N[C@H](C(=O)N(C)C)c2cccc(C(F)(F)F)c2)c1`: the IC50 against NKGD2-MICA worked out at 0.4 µM; on NKGD2-ULBP6 it was 0.6 µM.

As for `CN(C)C(=O)[C@@H](NC(=O)c1ccccc1-c1ccc(C(F)(F)F)cc1)c1cccc(N2CC(CC(F)(F)F)C2)c1`, the half-maximal inhibitory concentration (IC50) against NKGD2-MICA amounted to 1.6 µM; against NKGD2-ULBP6 it was 3.4 µM.

Regarding `CN(C)C(=O)[C@@H](NC(=O)c1cnccc1-c1ccc(C(F)(F)F)cc1)c1cccc(C(F)(F)F)c1`, the values for the concentration for half-maximal inhibition (IC50) at NKGD2-MICA and at NKGD2-ULBP6 were 0.4 µM and 1.4 µM, respectively.

For the molecule `CN(C)C(=O)[C@@H](NC(=O)c1cc(C(=O)NS(C)(=O)=O)ccc1-c1ccc(C(F)(F)F)cc1)c1cccc(C(F)(F)F)c1`, the IC50 on NKGD2-MICA amounted to 0.7 µM; against NKGD2-ULBP6, 1.7 µM.

For the molecule `CC1(C)C[C@H](CO)N(C(=O)C(NC(=O)c2ccccc2-c2ccc(C(F)(F)F)cc2)c2cccc(C(F)(F)F)c2)C1` (stereo partly specified), the half-maximal inhibitory concentration (IC50) on NKGD2-MICA and against NKGD2-ULBP6 was > 20 µM each time.

Take `CN(C)C(=O)[C@@H](NC(=O)c1cnccc1-c1ccc(C(F)(F)F)cc1)c1cc(Cl)cc(C(F)(F)F)c1`: the IC50 was determined as 0.1 µM at NKGD2-MICA and 0.2 µM against NKGD2-ULBP6.

For the molecule `CN(C)C(=O)[C@@H](NC(=O)c1ccccc1-c1ccc(C(F)(F)F)cc1)c1ccc(Cl)cc1`, the IC50 against NKGD2-MICA turned out to be 3.3 µM; against NKGD2-ULBP6, 5.8 µM.

In the case of `O=C(NC(C(=O)N1CC[C@H](CO)C1)c1cccc(C(F)(F)F)c1)c1ccccc1-c1ccc(C(F)(F)F)cc1` (stereo partly specified), the results for the concentration for half-maximal inhibition (IC50) at NKGD2-MICA and against NKGD2-ULBP6 were 10.5 µM and > 20 µM, respectively.

With `CN(C)C(=O)C(c1cccc(C(F)(F)F)c1)N(C)C(=O)c1ccccc1-c1ccc(C(F)(F)F)cc1` (stereo unspecified), the IC50 against NKGD2-MICA and against NKGD2-ULBP6 was > 20 µM throughout.

`O=C(NC(C(=O)N1CCC[C@H]1CO)c1cccc(C(F)(F)F)c1)c1ccccc1-c1ccc(C(F)(F)F)cc1` (stereo partly specified): the IC50 is 14.5 µM at NKGD2-MICA and > 20 µM against NKGD2-ULBP6.

For the molecule `Cc1n[nH]cc1-c1ccc(-c2ccc(C(F)(F)F)cc2)c(C(=O)NC(C(=O)N(C)C)c2cccc(C(F)(F)F)c2)c1` (racemic), the figures for the IC50 against NKGD2-MICA and against NKGD2-ULBP6 were 0.9 µM and 2.8 µM, respectively.

Take `CN(C)C(=O)C(NC(=O)c1cc(-c2ccnn2C2COC2)ccc1-c1ccc(C(F)(F)F)cc1)c1cccc(C(F)(F)F)c1` (racemic): the IC50 came out at 0.5 µM against NKGD2-MICA and 1.1 µM at NKGD2-ULBP6.

Regarding `O=C(NC(C(=O)N1CCCC1)c1cccc(C(F)(F)F)c1)c1ccccc1-c1ccc(C(F)(F)F)cc1` (racemic), the IC50 against NKGD2-MICA turned out to be 2.5 µM; at NKGD2-ULBP6, 5.1 µM.

On to `O=C(NC(C(=O)N1CCC1)c1cccc(C(F)(F)F)c1)c1ccccc1-c1ccc(C(F)(F)F)cc1` (racemic), for which the IC50 against NKGD2-MICA was found to be 3.4 µM; at NKGD2-ULBP6 it was 8.2 µM.

With `CN(C)C(=O)C(NC(=O)c1cncnc1-c1ccc(C(F)(F)F)cc1)c1cccc(C(F)(F)F)c1` (racemic), the half-inhibitory concentration (IC50) against NKGD2-MICA and on NKGD2-ULBP6 was > 20 µM in each case.

Regarding `CN(C)C(=O)C(NC(=O)c1ccccc1-c1ccc(C(F)(F)F)cc1)c1cccc(C(F)(F)F)c1` (racemic), the IC50 against NKGD2-MICA is 2.2 µM; on NKGD2-ULBP6 it was 5 µM.

`CN(C)C(=O)C(NC(=O)c1cccnc1-c1ccc(C(F)(F)F)cc1)c1cccc(C(F)(F)F)c1` (racemic): the IC50 at NKGD2-MICA and at NKGD2-ULBP6 was > 20 µM each time.

With `CN(C)C(=O)[C@@H](NC(=O)c1ccccc1-c1ccc(C(F)(F)F)cc1)c1ccccc1` (racemic), the IC50 on NKGD2-MICA and against NKGD2-ULBP6 was > 20 µM each time.
